Values belong to the molecule of their own block, whether it stands above or below them. The source made the active and inactive calls.
Tests used:
Danio rerio = experiment: In Vivo Angiogenesis Dose-Response Confirmation. [Related pubchem assays: 732 (Assay preceding this confirmatory assay.)]; assay type: functional, organism-based
[1] = biological target: Epstein-Barr nuclear antigen 1 (Epstein-Barr virus (strain B95-8) (HHV-4) (Human herpesvirus 4), UniProt P03211); experiment: EBNA-1 inhibitors, dose response, biochemical, fluorescence polarization, 1536-well (AID 2381); parameters: species or system human gammaherpesvirus 4;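 further: fluorescence polarization of a Cy5 DNA probe bound by EBNA-1 protein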
Sequence of Epstein-Barr nuclear antigen 1 (P03211 whole entry): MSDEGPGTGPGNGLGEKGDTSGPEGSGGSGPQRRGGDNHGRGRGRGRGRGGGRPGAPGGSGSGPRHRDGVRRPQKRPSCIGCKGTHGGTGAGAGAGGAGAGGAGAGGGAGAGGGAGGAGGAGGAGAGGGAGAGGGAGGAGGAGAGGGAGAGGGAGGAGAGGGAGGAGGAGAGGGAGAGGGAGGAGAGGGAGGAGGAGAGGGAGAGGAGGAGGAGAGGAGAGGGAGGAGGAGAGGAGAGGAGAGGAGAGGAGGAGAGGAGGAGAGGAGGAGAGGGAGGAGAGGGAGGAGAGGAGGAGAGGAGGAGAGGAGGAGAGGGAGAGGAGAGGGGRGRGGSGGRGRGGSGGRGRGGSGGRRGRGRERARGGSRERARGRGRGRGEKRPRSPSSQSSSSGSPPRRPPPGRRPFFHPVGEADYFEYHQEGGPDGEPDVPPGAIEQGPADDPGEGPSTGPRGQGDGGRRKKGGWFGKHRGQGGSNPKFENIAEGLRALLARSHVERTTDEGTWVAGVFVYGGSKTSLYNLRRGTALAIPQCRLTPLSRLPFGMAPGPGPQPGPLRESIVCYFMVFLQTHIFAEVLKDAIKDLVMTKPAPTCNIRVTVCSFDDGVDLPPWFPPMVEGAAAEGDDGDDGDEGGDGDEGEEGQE

[2] = biological target: Lytic switch protein BZLF1 (Epstein-Barr virus (strain B95-8) (HHV-4) (Human herpesvirus 4), UniProt P03206); experiment: EBV ZTA inhibitors, dose response, counter-screen for EBNA-1 inhibitor project, biochemical, fluorescence polarization, Epstein-Barr virus, 1536-well (AID 2377); parameters: species or system human gammaherpesvirus 4;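 further: fluorescence polarization of Cy5-labelled ZRE DNA probe bound by purified Zta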
Sequence of Lytic switch protein BZLF1 (P03206 whole entry): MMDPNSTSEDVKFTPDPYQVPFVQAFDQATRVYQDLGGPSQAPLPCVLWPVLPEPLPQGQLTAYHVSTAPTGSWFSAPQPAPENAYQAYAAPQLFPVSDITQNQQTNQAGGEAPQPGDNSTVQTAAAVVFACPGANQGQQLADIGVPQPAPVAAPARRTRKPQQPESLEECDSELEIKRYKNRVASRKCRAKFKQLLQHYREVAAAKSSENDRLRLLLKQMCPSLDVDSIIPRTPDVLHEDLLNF

Genome polyprotein = Genome polyprotein (Hepatitis C virus, UniProt Q2Q167); experiment: HCV core protein dimerization inhibitors, dose response, biochemical, TR-FRET (AID 2159); parameters: species or system Hepacivirus hominis;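 further: blocks dimerization of HCV core protein measured by TR-FRET between tagged core106 pairs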
Sequence of Genome polyprotein (Q2Q167 whole entry): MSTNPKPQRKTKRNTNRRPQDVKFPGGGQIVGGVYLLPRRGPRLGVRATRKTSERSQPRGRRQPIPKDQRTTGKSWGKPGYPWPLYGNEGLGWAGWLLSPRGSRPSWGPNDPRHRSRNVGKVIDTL

Estrogen receptor = biological target: T1, Estrogen receptor (Homo sapiens, UniProt P03372);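 further: potency for inhibiting coactivator peptide recruitment to the receptor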
T1 sequence (P03372 whole entry): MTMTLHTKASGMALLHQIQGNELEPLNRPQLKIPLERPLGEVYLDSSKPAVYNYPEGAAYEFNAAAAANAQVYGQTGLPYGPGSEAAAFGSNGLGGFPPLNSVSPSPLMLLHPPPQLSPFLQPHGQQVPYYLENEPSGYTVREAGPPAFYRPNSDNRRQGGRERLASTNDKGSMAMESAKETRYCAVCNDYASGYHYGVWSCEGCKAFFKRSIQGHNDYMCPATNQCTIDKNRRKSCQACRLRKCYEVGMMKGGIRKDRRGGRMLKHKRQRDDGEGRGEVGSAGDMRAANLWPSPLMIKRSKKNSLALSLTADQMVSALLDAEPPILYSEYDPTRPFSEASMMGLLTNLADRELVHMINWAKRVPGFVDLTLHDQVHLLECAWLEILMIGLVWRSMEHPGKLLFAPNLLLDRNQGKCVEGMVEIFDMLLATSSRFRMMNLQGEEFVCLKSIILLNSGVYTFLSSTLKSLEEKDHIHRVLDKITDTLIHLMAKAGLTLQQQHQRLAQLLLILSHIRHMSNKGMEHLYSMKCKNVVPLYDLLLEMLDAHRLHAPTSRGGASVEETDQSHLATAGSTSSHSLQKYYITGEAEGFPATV

Estrogen receptor beta [3] = biological target: T2, Estrogen receptor beta (Homo sapiens, UniProt Q92731);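 further: recombinant ER-beta bound to coactivator SRC1 peptide in presence of estradiol agonist; inhibitors block coactivator peptide binding and lower the FRET signal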
T2 sequence (Q92731 whole entry): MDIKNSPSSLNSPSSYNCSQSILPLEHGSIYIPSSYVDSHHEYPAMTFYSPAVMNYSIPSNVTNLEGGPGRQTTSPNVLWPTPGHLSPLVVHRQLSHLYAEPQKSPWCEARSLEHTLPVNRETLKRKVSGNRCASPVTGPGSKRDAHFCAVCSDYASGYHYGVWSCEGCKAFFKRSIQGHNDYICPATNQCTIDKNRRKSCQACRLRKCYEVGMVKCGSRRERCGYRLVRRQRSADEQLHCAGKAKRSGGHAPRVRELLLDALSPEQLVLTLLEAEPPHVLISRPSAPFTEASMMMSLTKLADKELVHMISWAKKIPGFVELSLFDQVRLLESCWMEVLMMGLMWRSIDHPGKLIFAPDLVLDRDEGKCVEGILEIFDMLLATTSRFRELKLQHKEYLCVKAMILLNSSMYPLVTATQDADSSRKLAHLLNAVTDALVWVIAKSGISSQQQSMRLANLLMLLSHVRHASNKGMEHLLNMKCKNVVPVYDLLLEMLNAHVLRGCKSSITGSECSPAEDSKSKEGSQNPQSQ

Estrogen receptor beta [4] = biological target: T2, Estrogen receptor beta; experiment: ERβ–SRC-3 coactivator interaction inhibitors, confirmation, orthogonal assay, biochemical, ELISA, streptavidin-HRP readout (AID 1060)
[5] = biological target: T3, Dual specificity protein phosphatase 6 (Rattus norvegicus, UniProt Q64346); experiment: MKP-3 phosphatase inhibitors, primary screen, biochemical, rat enzyme, in vitro (AID 425)
T3 sequence (Q64346 whole entry): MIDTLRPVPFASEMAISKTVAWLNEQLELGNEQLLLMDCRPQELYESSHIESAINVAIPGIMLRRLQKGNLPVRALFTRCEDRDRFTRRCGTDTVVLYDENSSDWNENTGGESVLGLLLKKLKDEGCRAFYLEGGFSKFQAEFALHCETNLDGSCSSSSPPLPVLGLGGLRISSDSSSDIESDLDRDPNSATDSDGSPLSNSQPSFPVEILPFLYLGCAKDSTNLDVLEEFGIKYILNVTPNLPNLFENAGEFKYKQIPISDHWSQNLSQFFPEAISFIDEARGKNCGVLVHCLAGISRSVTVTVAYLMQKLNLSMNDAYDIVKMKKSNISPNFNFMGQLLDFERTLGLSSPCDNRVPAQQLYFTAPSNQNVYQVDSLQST

[6] = biological target: Eukaryotic translation initiation factor 4E (Mus musculus, UniProt P63073); experiment: eIF4E–eIF4G protein interaction inhibitors, dose response, biochemical, TR-FRET (AID 855); assay type: functional;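 further: potency for disrupting eIF4E binding to eIF4GI seen as loss of FRET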
Sequence of Eukaryotic translation initiation factor 4E (P63073 whole entry, the tested form may be a part): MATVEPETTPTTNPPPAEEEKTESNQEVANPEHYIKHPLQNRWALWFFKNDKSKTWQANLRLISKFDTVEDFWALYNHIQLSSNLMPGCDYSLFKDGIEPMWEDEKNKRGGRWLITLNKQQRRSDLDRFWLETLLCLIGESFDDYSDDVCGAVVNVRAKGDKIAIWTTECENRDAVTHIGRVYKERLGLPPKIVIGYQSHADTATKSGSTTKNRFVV

[7] = biological target: T4, Carboxy-terminal domain RNA polymerase II polypeptide A small phosphatase 1 (Homo sapiens, UniProt Q9GZU7); experiment: inhibitors of CTDSP1, concentration-response testing, biochemical assay, absorbance-based, actives from ultra-high-throughput screening (AID 540297); assay type: functional
T4 sequence (Q9GZU7 whole entry): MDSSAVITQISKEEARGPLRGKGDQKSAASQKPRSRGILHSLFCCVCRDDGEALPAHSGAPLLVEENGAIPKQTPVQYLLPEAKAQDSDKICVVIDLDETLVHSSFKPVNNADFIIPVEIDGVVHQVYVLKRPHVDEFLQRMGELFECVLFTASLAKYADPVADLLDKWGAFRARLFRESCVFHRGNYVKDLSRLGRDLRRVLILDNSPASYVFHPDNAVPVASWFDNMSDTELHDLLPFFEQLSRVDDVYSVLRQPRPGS

Leucine aminopeptidase = biological target: T5, Leucine aminopeptidase (Plasmodium falciparum 3D7, UniProt Q8IL11); experiment: P. falciparum M17LAP inhibitors, primary screen, biochemical, fluorogenic H-Leu-NHMec substrate, 1536-well (AID 1619); assay type: functional
T5 sequence (Q8IL11 whole entry): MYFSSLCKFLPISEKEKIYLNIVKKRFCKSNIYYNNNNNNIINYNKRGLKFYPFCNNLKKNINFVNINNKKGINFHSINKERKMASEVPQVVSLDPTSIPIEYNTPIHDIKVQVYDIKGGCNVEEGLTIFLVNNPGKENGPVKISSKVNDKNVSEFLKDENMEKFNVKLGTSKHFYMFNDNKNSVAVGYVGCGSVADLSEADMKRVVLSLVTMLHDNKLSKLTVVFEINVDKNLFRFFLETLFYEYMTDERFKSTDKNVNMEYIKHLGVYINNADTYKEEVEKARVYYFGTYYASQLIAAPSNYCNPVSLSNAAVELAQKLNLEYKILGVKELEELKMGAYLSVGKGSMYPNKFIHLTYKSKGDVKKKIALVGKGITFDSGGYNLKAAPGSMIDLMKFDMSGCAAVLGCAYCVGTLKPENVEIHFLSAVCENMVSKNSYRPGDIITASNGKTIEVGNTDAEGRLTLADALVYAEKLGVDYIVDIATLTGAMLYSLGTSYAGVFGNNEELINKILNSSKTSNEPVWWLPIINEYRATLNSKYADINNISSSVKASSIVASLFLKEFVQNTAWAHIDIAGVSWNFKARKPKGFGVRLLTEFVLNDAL

Aspartyl aminopeptidase = Aspartyl aminopeptidase (Plasmodium falciparum 3D7, UniProt Q8I2J3); experiment: Counterscreen for inhibitors of M1 and M17 aminopeptidases: QFRET-based biochemical high throughput dose response assay for inhibitors of the Plasmodium falciparum M18 Aspartyl Aminopeptidase (PFM18AAP). [Related PubChem assays: 1619 (Screening assay (M17LAP inhibitors).), 1445 (Screening assay (M1AAP inhibitors).)]
Sequence of Aspartyl aminopeptidase (Q8I2J3 whole entry): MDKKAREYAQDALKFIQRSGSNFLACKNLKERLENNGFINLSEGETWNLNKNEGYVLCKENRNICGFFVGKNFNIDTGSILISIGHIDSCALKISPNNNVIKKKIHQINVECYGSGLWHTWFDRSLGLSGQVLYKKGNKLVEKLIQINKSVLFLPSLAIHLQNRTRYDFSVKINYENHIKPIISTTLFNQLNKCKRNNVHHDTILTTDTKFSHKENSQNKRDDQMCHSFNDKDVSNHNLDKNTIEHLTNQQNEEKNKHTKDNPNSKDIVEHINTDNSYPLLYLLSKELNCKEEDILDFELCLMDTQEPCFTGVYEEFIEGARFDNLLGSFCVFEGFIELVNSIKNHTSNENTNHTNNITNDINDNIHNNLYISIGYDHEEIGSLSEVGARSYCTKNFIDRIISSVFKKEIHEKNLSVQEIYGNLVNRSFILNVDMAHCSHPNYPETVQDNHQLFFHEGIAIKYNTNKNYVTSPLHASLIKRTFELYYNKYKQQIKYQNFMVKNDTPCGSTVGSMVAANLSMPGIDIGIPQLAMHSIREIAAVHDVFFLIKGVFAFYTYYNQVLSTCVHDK

Procathepsin L = Procathepsin L (Homo sapiens, UniProt P07711); experiment: cathepsin L inhibitors, dose response, counter-screen for M1/M17 aminopeptidase inhibitor project, biochemical, QFRET, 1536-well (AID 2214)
Sequence of Procathepsin L (P07711 whole entry): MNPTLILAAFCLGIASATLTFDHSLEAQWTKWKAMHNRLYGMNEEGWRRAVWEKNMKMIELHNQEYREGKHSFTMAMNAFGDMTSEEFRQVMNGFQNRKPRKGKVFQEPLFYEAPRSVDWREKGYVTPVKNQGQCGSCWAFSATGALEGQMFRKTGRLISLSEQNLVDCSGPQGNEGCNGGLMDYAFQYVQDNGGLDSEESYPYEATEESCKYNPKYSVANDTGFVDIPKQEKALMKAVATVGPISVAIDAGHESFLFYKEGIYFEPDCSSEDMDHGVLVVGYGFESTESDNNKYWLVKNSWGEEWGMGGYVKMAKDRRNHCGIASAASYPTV

Cytochrome P450 2C19 = Cytochrome P450 2C19 (Homo sapiens, UniProt P33261); experiment: Cytochrome panel assay with activity outcomes. Panel member name: p450-cyp2c19 Compounds with AC50 equal or less than 10 uM are considered active; assay type: functional; details: read-out: AC50
Sequence of Cytochrome P450 2C19 (P33261 whole entry): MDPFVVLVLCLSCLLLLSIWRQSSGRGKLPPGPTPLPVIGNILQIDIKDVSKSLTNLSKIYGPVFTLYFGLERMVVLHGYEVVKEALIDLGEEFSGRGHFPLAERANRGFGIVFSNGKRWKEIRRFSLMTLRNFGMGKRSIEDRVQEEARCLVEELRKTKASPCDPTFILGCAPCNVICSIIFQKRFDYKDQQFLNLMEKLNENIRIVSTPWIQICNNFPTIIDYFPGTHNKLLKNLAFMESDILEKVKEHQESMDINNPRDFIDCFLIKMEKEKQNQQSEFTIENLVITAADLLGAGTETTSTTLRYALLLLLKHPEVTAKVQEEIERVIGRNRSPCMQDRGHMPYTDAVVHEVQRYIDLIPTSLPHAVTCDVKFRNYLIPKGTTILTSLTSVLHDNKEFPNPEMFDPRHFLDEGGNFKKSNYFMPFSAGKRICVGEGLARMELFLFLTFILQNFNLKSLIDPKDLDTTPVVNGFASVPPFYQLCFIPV

Cytochrome P450 2C9 = Cytochrome P450 2C9 (Homo sapiens, UniProt P11712)
Sequence of Cytochrome P450 2C9 (P11712 whole entry): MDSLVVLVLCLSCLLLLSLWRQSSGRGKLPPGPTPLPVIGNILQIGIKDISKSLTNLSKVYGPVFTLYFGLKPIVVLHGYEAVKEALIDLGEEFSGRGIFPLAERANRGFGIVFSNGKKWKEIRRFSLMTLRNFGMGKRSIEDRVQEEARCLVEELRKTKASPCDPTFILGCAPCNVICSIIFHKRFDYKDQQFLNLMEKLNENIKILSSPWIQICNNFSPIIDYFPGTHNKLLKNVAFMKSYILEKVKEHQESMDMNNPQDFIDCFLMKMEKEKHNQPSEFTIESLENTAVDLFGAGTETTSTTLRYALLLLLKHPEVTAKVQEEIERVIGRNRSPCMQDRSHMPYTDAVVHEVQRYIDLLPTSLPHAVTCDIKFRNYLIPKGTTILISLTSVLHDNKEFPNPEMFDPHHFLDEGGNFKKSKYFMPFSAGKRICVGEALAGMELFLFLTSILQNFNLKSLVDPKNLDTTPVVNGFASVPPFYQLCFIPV

Vero [8] = experiment: host cell cytotoxicity of antiviral hits, dose response, cytotoxicity control for West Nile virus antiviral project, secondary assay (AID 1650); assay type: functional; details: Chlorocebus sabaeus
Vero [9] = experiment: West Nile virus antiviral activity, cell-based, CPE readout (AID 1621); assay type: functional; details: Chlorocebus sabaeus
Beta-galactosidase = Beta-galactosidase (Escherichia coli, UniProt Q8VNN2); experiment: PubChem AID 485352; assay type: functional
Sequence of Beta-galactosidase (Q8VNN2 whole entry): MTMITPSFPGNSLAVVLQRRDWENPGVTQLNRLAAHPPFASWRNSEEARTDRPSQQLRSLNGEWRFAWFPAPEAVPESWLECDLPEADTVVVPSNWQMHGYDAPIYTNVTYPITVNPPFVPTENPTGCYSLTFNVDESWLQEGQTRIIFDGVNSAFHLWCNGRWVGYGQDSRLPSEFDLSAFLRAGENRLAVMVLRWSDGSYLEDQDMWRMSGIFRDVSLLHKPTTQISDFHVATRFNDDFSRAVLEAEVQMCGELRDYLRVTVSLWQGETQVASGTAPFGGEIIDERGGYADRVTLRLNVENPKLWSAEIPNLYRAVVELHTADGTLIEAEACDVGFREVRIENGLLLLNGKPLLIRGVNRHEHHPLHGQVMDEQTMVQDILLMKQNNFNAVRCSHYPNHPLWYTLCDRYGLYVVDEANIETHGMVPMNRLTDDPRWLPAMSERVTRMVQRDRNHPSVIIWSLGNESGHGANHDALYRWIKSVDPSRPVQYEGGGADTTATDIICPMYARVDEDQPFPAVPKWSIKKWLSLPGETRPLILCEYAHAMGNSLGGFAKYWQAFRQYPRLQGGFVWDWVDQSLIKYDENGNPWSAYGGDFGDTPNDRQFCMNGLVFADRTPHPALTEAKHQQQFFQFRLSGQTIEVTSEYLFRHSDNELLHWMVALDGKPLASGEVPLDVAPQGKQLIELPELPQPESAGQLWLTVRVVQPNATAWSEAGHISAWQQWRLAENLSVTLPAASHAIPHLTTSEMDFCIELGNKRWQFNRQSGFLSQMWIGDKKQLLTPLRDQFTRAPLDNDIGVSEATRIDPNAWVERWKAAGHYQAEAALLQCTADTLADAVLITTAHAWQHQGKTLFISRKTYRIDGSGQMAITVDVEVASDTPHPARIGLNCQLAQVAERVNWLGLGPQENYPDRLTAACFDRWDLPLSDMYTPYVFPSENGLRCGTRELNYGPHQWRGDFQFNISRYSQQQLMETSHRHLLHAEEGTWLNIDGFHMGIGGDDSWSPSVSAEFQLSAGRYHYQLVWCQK

[10] = biological target: T6, Type-1 angiotensin II receptor (Homo sapiens, UniProt P30556); experiment: AT1 receptor antagonists, dose response, selectivity assay for APJ receptor antagonist project, cell-based, uHTS hits (AID 463214); assay type: functional;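 further: antagonist potency against angiotensin II stimulated AT1 response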
T6 sequence (P30556 whole entry): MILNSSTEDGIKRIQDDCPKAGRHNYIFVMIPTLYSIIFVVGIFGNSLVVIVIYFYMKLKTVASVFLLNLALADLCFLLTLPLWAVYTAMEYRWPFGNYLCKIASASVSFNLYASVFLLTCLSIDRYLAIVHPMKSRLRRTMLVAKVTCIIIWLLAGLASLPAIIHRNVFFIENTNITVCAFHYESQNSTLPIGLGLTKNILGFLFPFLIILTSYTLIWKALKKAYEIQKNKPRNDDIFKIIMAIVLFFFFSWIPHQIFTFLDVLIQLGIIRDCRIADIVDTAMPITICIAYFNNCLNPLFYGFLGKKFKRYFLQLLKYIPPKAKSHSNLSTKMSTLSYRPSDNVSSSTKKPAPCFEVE

[11] = biological target: Protein-tyrosine kinase 2-beta (Homo sapiens, UniProt Q14289);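 further: potency of inhibitors of PYK2 kinase phosphorylation of poly-GT substrate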

Structure (SMILES): O=C1Nc2c(Cl)cc(Cl)cc2/C1=C1/Nc2ccccc2C1=O
- IC50 (Danio rerio): 4.24 µM (active)

- IC50 [1]: > 16.4 µM (not active)
- IC50 [2]: > 111 µM (not active)
Structure (SMILES): Cc1ccc(NC(=O)CSc2ccc(-c3ccccn3)nn2)cc1F

- IC50 (Genome polyprotein): > 49.8 µM (not active)
- IC50 (Estrogen receptor): 3.02 µM (active)
- IC50 (Estrogen receptor beta [3]): < 1.56 µM (active)
- IC50 (Estrogen receptor beta [4]): 0.161 µM (not active)
- IC50 [5]: > 10 µM (not active)
- IC50 [6]: 35.4 µM (inactive)
- IC50 [7]: 5.33 µM (active)
Structure (SMILES): O=C1Nc2ccccc2SC(c2ccccc2)C1O (stereo not given)

- IC50 (Leucine aminopeptidase): 4.8 µM (active)
- IC50 (Aspartyl aminopeptidase): > 73.5 µM (not active)
- IC50 (Procathepsin L): > 59.6 µM (not active)
- AC50 (Cytochrome P450 2C19): 28.2 µM (inconclusive)
- AC50 (Cytochrome P450 2C9): 25.1 µM (inconclusive)
Structure (SMILES): CCOC(=O)c1c(-c2ccc(C)cc2)csc1NC(=O)C1CC=CCC1C(=O)O (stereo not given)

Structure (SMILES): COc1ccc(C2c3ccc4ccccc4c3Oc3ncn(CCCO)c(=N)c32)cc1OC (stereo not given)
- CC50 (Vero [8]): 19.7 µM (active)
- IC50 (Vero [9]): 21.5 µM (active)

- EC50 (Beta-galactosidase): > 40 µM (inactive)
- IC50 [10]: > 40 µM (not active)
- IC50 [11]: > 69.5 µM (not active)
Structure (SMILES): CCOCCO/C(O)=C1\C(C)=NC2=C(C(=O)CC(c3cccs3)C2)C1c1ccsc1 (stereo not given)
